# Data as given in patent US6331548A, “1-cycloalkyl-1,8-naphthyridin-4-one derivative as type IV phosphodiesterase inhibitor” (Suntory Limited, priority 1998, dated 2001).
# Where a name gives a salt, the structure may show the parent alone.
# Legend:
# [1] = system: TNF-α production by LPS stimulated macrophages; assay: TNF-α production inhibitory activity by LPS stimulated macrophages; type: cell-based; details: Macrophage, BALB/c mouse peritoneal macrophages, cultured for 8 hours, ELISA
# Experimental: The following assay was used to evaluate the ability of the compound of the present invention to suppress TNF-α production by LPS stimulated macrophages according to Immunopharmacol. 29, 121-127 (1995).
# 1) 6 to 10 week old female BALB/c mice were used, 2 ml portions of thioglycolate were intraperitoneally administered, and the abdominal cavities were washed by 10 ml of PBS after 4 days, whereby 1 to 2×10^7 peritoneal cells were obtained per mouse. These were suspended in a hemocyte solution (0.75% ammonium chloride, 17 mM tris-hydrochlorate buffer, pH7.2), centrifuged, then resuspended in an RPMI1640 medium including 10% fetal calf serum and seeded in a 96-well cell culture plate at a density of 1×10^5 cells/50 μl/well. Since these cells adhered strongly to the tissue culture plate and were positive in nonspecific esterase staining, they were used for the test as mouse peritoneal macrophages. Mouse peritoneal macrophages were precultured overnight at 37° C. in […] for the experiment.
# 2) E. Coli (serum type 055:B5) derived LPS was dissolved in PBS in a concentration of 1 mg/ml, then sterilized by filtration. The test compound was dissolved in DMSO to make a 1000-fold concentration solution of the final concentration of use. 10 μl of the above LPS stock solution (final concentration 10 μg/ml) and 1 μl of the tested substance stock solution were added and mixed in 0.5 ml of RPMI1640 medium containing 10% fetal calf serum. This was added to the above cells at 50 μl/well and cultured for 8 hours. The cultured supernatant was recovered from each well and the TNF-α concentration was measured by the ELISA method (Cytoscreen® Immunoassay Kit Mouse TNF-α, BioSourse International).
# The comparative example was the compound described in WO-A-97-04775, Example 1, mentioned above.
# [2] = biological target: type IV phosphodiesterase; assay: Type IV phosphodiesterase inhibiting activity; type: biochemical, human; details: U937 type IV phosphodiesterase fraction, 0.28 μM cAMP, pH 7.5, 30° C., 30 minutes; read-out: PDEIV-IC50
# Experimental: The following assay was used to evaluate the ability of the compound of the present invention to suppress type IV phosphodiesterase, according to Biochemical. Pharmacol. 48 (6), 1219-1223 (1994).
# 1) Type IV phosphodiesterase activity fractions were prepared as follows. Namely, human histiocytic lymphoma cell line U937 was cultured in an RPMI1640 medium containing 10% fetal calf serum to obtain 10^9 cells of U937. The cells were recovered by centrifugation and suspended in 40 ml of buffer A (20 mM bis-tris, 5 mM 2-mercaptoethanol, 2 mM benzamidine, 2 mM EDTA, 0.1 mM 4-(2-aminoethyl)benzensulfonyl hydrochloride, 50 mM sodium acetate, pH=6.5). The cells were broken by a sonication and centrifuged (4° C., 10,000 G, 10 minutes) to obtain a supernatant. This was filtered by a 0.45 μm filter to obtain the soluble fraction.
# 2) The soluble fraction obtained was applied into a 1×10 cm DEAE Sepharose column equalibrated with the buffer A. 120 ml of the buffer A containing a linear gradient solution of 0.05 to 1M sodium acetate was used to separate the phosphodiesterase and recover 24 5-ml fractions. Each of the fractions was measured for the cAMP phosphodiesterase activity.
# 3) The test compound was reacted at a desired concentration in a reaction mixture containing 20 mM tris-HCl (pH 7.5), 1 mM MgCl2, 100 μM EDTA, 330 μg/ml calf serum albumin, 10 μg/ml 5'-nucleotidase, 0.4 μCi ^3 H-cAMP (0.28 μM cAMP) and the type IV phosphodiesterase stored solution at 30° C. for 30 minutes. QAE-Sephadex suspended in 10 mM of hepes-Na (pH -7.0) was added to the reaction mixture which was then allowed to stand for 5 minutes, then the supernatant was obtained, QAE-Sephadex was further added, to the supernatant, and was allowed to stand for 5 minutes, then the supernatant was obtained and measured for radioactivity.
SMILES,IC50 [1] [nM],IC50 [2] [nM]
"CCn1cc(C(=O)NCCc2ccncc2)c(=O)c2ccc(C)nc21 [Comp. Ex., N-(2-(4-pyridyl)ethyl)-1-ethyl-7-methyl-1,8-naphthyridin-1,4-dihydro-4-one-3-carboxyamide, reference compound]",10000,5200
"COC(=O)N1CC[C@H](n2cc(C(=O)Nc3c(Cl)cccc3Cl)c(=O)c3cccnc32)C1 [Example 9, (S)-N-(2,6-dichlorophenyl)-1-(1-methoxycarbonylpyrrolidin-3-yl)-1,4-dihydro[1,8]naphthyridin-4-one-3-carboxamide]",100,23
"COC(=O)N1CC[C@@H](n2cc(C(=O)Nc3c(Cl)cccc3Cl)c(=O)c3cccnc32)C1 [Example 16, (R)-N-(2,6-dichlorophenyl)-1-(1-methoxycarbonylpyrrolidin-3-yl)-1,4-dihydro[1,8]naphthyridin-4-one-3-carboxamide]",300,54
"COC(=O)N1CC[C@@H](n2cc(C(=O)Nc3c(Cl)cncc3Cl)c(=O)c3cccnc32)C1 [Example 17, (R)-N-(3,5-dichloropyridin-4-yl)-1-(1-methoxycarbonylpyrrolidin-3-yl)-1,4-dihydro[1,8]naphthylidin-4-one-3-carboxamide]",10,4.8
"CCNC(=O)N1CC[C@H](n2cc(C(=O)Nc3c(Cl)cncc3Cl)c(=O)c3cccnc32)C1 [Example 18, (S)-N-(3,5-dichloropyridin-4-yl)-1-(1-ethylaminocarbonylpyrrolidin-3-yl)-1,4-dihydro[1,8]naphthylidin-4-one-3-carboxamide]",1,4.7
"CNC(=S)N1CC[C@H](n2cc(C(=O)Nc3c(Cl)cncc3Cl)c(=O)c3cccnc32)C1 [Example 19, (S)-N-(3,5-dichloropyridin-4-yl)-1-(1-methylaminothiocarbonylpyrrolidin-3-yl)-1,4-dihydro[1,8]naphthylidin-4-one-3-carboxamide]",7,6.3
"NC(=O)N1CC[C@H](n2cc(C(=O)Nc3c(Cl)cncc3Cl)c(=O)c3cccnc32)C1 [Example 20, (S)-N-(3,5-dichloropyridin-4-yl)-1-(1-aminocarbonylpyrrolidin-3-yl)-1,4-dihydro[1,8]naphthylidin-4-one-3-carboxamide]",3000,12
"CCNC(=O)N1CCC(n2cc(C(=O)Nc3c(Cl)cncc3Cl)c(=O)c3cccnc32)CC1 [Example 27, N-(3,5-dichloropyridin-4-yl)-1-(1-ethylaminocarbonylpiperidin-4-yl)-1,4-dihydro[1,8]naphthylidin-4-one-3-carboxamide]",10,1.3
"CC(=O)N1CCC(n2cc(C(=O)Nc3c(Cl)cncc3Cl)c(=O)c3cccnc32)CC1 [Example 28, N-(3,5-dichloropyridin-4-yl)-1-(1-acetylpiperidin-4-yl)-1,4-dihydro[1,8]naphthylidin-4-one-3-carboxamide]",100,7.8
"COC(=O)N1CC(n2cc(C(=O)Nc3cccnc3)c(=O)c3cccnc32)C1 [Example 32, N-(3-pyridyl)-1-(1-methoxycarbonylazetidin-3-yl)-1,4-dihydro[1,8]naphthylidin-4-one-3-carboxamide]",4000,2200
"COC(=O)N1CC(n2cc(C(=O)Nc3ccncc3)c(=O)c3cccnc32)C1 [Example 33, N-(4-pyridyl)-1-(1-methoxycarbonylazetidin-3-yl)-1,4-dihydro[1,8]naphthylidin-4-one-3-carboxamide]",5000,2000
"O=C(Nc1c(Cl)cncc1Cl)c1cn([C@@H]2CCOC2)c2ncccc2c1=O [Example 39, N-(3,5-dichloropyridin-4-yl)-1-[(R)-tetrahydro-3-furanyl]-1,4-dihydro[1,8]naphthylidin-4-one-3-carboxamide]",5000,10
"O=C(Nc1ccncc1)c1cn([C@H]2CCOC2)c2ncccc2c1=O [Example 43, N-(4-pyridyl)-1-[(S)-tetrahydro-3-furanyl]-1,4-dihydro[1,8]naphthylidin-4-one-3-carboxamide]",2500,190
"O=C(Nc1c(Cl)cncc1Cl)c1cn([C@H]2CCOC2)c2ncccc2c1=O [Example 44, N-(3,5-dichloropyridine-4-yl)-1-[(S)-tetrahydro-3-furanyl]-1,4-dihydro[1,8]naphthylidin-4-one-3-carboxamide]",10,2.7
"O=C(Nc1c(Cl)cncc1Cl)c1cn(C2CCN(Cc3ccccc3)CC2)c2ncccc2c1=O [Example 46, N-(3,5-dichloropyridin-4-yl)-1-(benzylpiperidin-4-yl)-1,4-dihydro[1,8]naphthylidin-4-one-3-carboxamide]",500,13
"O=C(Nc1c(Cl)cncc1Cl)c1cn(C2CCNCC2)c2ncccc2c1=O [Example 47, N-(3,5-dichloropyridin-4-yl)-1-(4-piperidyl)-1,4-dihydro[1,8]naphthylidin-4-one-3-carboxamide hydrochloride]",800,40
"O=CN1CCC(n2cc(C(=O)Nc3c(Cl)cncc3Cl)c(=O)c3cccnc32)CC1 [Example 48, N-(3,5-dichloropyridin-4-yl)-1-(1-formylpiperidin-4-yl)-1,4-dihydro[1,8]naphthylidin-4-one-3-carboxamide]",1500,4.8
"O=C(CN1CCC(n2cc(C(=O)Nc3c(Cl)cncc3Cl)c(=O)c3cccnc32)CC1)OCc1ccccc1 [Example 49, benzyl 2-{4-[3-[(3,5-dichloropyridin-4-yl)amino]carbonyl-1,4-dihydro[1,8]naphthylidin-4-one-1-yl]piperidino}acetate]",200,22
O=C(O)CN1CCC(n2cc(C(=O)Nc3c(Cl)cncc3Cl)c(=O)c3cccnc32)CC1 [Example 50],7000,100
"CN1CCC(n2cc(C(=O)Nc3c(Cl)cncc3Cl)c(=O)c3cccnc32)CC1 [Example 51, N-(3,5-dichloropyridin-4-yl)-1-(1-methylpiperidin-4-yl)-1,4-dihydro[1,8]naphthylidin-4-one-3-carboxamide]",50,43
"Cc1nn(C)c(C)c1NC(=O)c1cn([C@H]2CC[C@H](O)CC2)c2ncccc2c1=O [Example 184, N-(1,3,5-trimethylpyrazol-4-yl)-1-(trans-4-hydroxycyclohexyl)-1,4-dihydro[1,8]naphthylidin-4-one-3-carboxamide]",,2300
"CC1(O)CCC(n2cc(C(=O)Nc3c(Cl)cncc3Cl)c(=O)c3cccnc32)CC1 (stereo not drawn) [Example 192, N-(3,5-dichloropyridin-4-yl)-1-(4-hydroxy-4-methylcyclohexyl)-1,4-dihydro[1,8]naphthylidin-4-one-3-carboxamide]",,4.1
"CC1(O)CCC(n2cc(C(=O)Nc3ccncc3)c(=O)c3cccnc32)CC1 (stereo not drawn) [Example 194, N-(4-pyridinyl)-1-(4-hydroxy-4-methylcyclohexyl)-1,4-dihydro[1,8]naphthylidin-4-one-3-carboxamide]",,960
"CC(=O)O[C@H]1CC[C@H](n2cc(C(=O)Nc3c(Cl)cncc3Cl)c(=O)c3cccnc32)CC1 [Example 197, trans-4-[3-{[(3,5-dichloropyridin-4-yl)amino]carbonyl}-1,4-dihydro[1,8]naphthylidin-1-yl]cyclohexyl acetate]",,6.2
"COc1ccc(C2CNC(=O)C2)cc1OC1CCCC1 (stereo not drawn) [Rolipram, reference compound]",100,
